Test results from patent US20230049350A1, “COMPOUNDS FOR TREATING BRAIN CANCER” (Purdue Pharmaceutical Products L.P., priority 2014, published 2023).
“Also recorded” adds a separate entry of the source. Read-outs that look alike come from different tables or passages of the source.

Columns and labels:
U251MG = experiment: GBM cell line viability IC50, U251; format: cell-based; settings: Homo sapiens, U-251
Procedure: In vitro experiments were devised in which a series of GBM cell lines representative for MGMT negative and MGMT positive tumour cells were used.
Compounds: 1-100 µM EDO-S101, 1-50 µM temozolomide (TMZ), 1-50 µM temozolomide + 500 nM vorinostat, 1-40 µM bendamustine, 1-40 µM bendamustine and 500 nM vorinostat.
Twelve glioblastoma cell lines representing grade III and IV gliomas and with different expression of MGMT, drug and radiotherapy sensitivity and five patient derived glioblastoma stem, cells were used (see above). […] Spheres were counted 5 days after treatment under an inverted microscope at ×4 magnification. A sphere was counted if it had at least 15 cells.
Cells were seeded at a density of 2 × 10^4 cells/ml in 24 well plates. […] Cells trypsinized and resuspended in 1.0 ml of saline were counted using the NucleoCounterTM NC-100 (automated cell counter systems, Chemotec, Cydevang, DK) in order to evaluate cell viability. […] IC50 values were calculated by the GraFit method (Erithacus Software Limited, Staines, UK). Cell viability was measured with the 3-(4,5 dimethylthiazol-2-yl)-2,5-diphenyl tetrazolium bromide (MTT; Sigma-Aldrich) assay.
IC50 and IC20 values for all twelve cell lines against bendamustine and vorinostat were also determined as described above. […]

OCI-LY10B lymphoma cells = experiment: Murine model for primary CNS lymphoma, intracerebral OCI-LY10B; format: in vivo, mice; settings: for tumour growth: iv days +4, +11, +18; for median survival: iv days +4, +11, +18, EDO-S101 60 mg/kg, bendamustine 50 mg/kg, controls 48 days
Procedure: The procedure of Example 3 was repeated, except the murine models were created with 1×10^5 luciferase-transfected OCI-LY10B lymphoma cells to create a model of primary CNS lymphoma. EDO-S101 (60 mg/kg body weight), bendamustine (50 mg/kg body weight) and control was administered intravenously via a tail vein to separate groups of the test mice on days +4, +11 and +18 post intracerebral implantation of the OCI-LY10B lymphoma cells. […] EDO-S101 therefore appears to be a promising treatment for primary CNS lymphoma.

NCI-60 cell lines = settings: read-out: median IC50 value; cited from earlier work
U251 = experiment: s.c. xenograft model of GBM, U251, time to progression; format: in vivo, mice; settings: for time to progression of the tumours: U251G xenograft
Procedure: (§1) Next, adopting the procedure of Example 3, s.c. xenograft models of GBMs in mice were prepared using the GBM cell lines U251 and U87.
(§2) The U251 mice prepared as above were subjected either subjected to radiotherapy (2 Gy for 5 consecutive days), treatment with EDO-S101 (60 mg/kg intravenously at days 1, 8 and 15 of the treatment cycle) or control only. Before any irradiation mice were anesthetized with a mixture of ketamine (25 mg/ml)/xylazine (5 mg/ml). Anesthetized tumor-bearing mice received a focal irradiation at the dose of 2 Gy for 5 consecutive days. Irradiation was delivered using an X-ray linear accelerator at a dose rate of 200 cGy/min at room temperature. All mice were shielded with a specially designed lead apparatus to allow irradiation to the right hind limb. Mice were kept under these conditions until all irradiation finished.
A study was made of the progression of the GBM according to the procedure of Example 3.
In a follow up experiment, U251 mice prepared in the same manner were either subjected to the current gold standard treatment of radiotherapy and temozolomide (2 Gy for 5 consecutive days and 16 mg/kg for 5 consecutive days, po), treatment with EDO-S101 (60 mg/kg, intravenously at days 1, 8 and 15 of the treatment cycle), treatment with EDO-S101 and radiotherapy (2 Gy for 5 consecutive days and 60 mg/kg, intravenously at days 1, 8 and 15 of the treatment cycle) or control.

U87 = experiment: s.c. xenograft model of GBM, U87, time to progression; format: in vivo, mice; settings: for time to progression of the tumours: U87G xenograft
Procedure: as §1, §2
The same sequence of experiments was followed, but this time with the s.c. xenograft models of GBM in mice prepared using the GBM cell line U87. In a first experiment, the U87 mice prepared as above were subjected either subjected to radiotherapy (2 Gy for 5 consecutive days), treatment with EDO-S101 (60 mg/kg intravenously at days 1, 8 and 15 of the treatment cycle) or control only. A study was made of the progression of the GBM.

[1] = drug in combination with radiotherapy 2 Gy x 5 days, EDO-S101 60 mg/kg iv days 1, 8, 15, temozolomide 16 mg/kg po x 5 days

| IC50 (U251MG; MGMT negative U251MG glioblastoma cell line, read-out: IC50) [µM] | Compound | IC50 (U251MG) [µM] | tumour growth (OCI-LY10B lymphoma cells) | median survival (OCI-LY10B lymphoma cells) [days] | IC50 (NCI-60 cell lines) [µM] | time to progression of the tumours (U251; [1]) | time to progression of the tumours (U87; [1]) | time to progression of the tumours (U251; drug alone, 60 mg/kg iv days 1, 8, 15, control approximately 17-18 days) | time to progression versus radiotherapy-treated tumours (U251; U251 s.c. xenograft, drug alone, FIG. 11) | time to progression versus EDO-S101 alone and versus radiotherapy and temozolomide (U251; U251 s.c. xenograft, drug plus radiotherapy, FIG. 12) | time to progression of the tumours (U87; drug alone, 60 mg/kg iv days 1, 8, 15, control approximately 15 days) [days] | time to progression versus radiotherapy, or versus radiotherapy and temozolomide (U87; U87 s.c. xenograft, drug alone, FIG. 13, FIG. 14) | time to progression versus EDO-S101 alone and versus radiotherapy and temozolomide (U87; U87 s.c. xenograft, drug plus radiotherapy, FIG. 14) |
| --- | --- | --- | --- | --- | --- | --- | --- | --- | --- | --- | --- | --- | --- |
| – | Cn1c(CCCC(=O)O)nc2cc(N(CCCl)CCCl)ccc21 [bendamustine] | 30 | significantly suppressed tumour growth | 54 | 72 | – | – | – | – | – | – | – | – |
| 20 | Cn1nnc2c(C(N)=O)ncn2c1=O [temozolomide] | – | – | – | – | 42 days | 35 days | – | – | – | – | – | – |
| – | Cn1c(CCCCCCC(=O)NO)nc2cc(N(CCCl)CCCl)ccc21 [EDO-S101] | – | significantly suppressed tumour growth | 62 | 2.2 | over 50 days | over 50 days | over 50 days | considerably longer | significantly longer | 40 | considerably longer; also recorded: greater than that achieved with the combined radiotherapy and temozolomide treatment | significantly longer |
